The target in the experiment is glucocorticoid receptor (GAL4 DBD-GR) (Homo sapiens (Human), UniProt P04150). Briefly: GR cell-based assays (GRE agonist / GRE antagonist), CHO-Gal4/GR luciferase reporter. As to conditions: read-out: IC50 or EC50. An excerpt:
Potential selective glucocorticoid receptor modulators of this intervention can be tested for modulation of the activity of the glucocorticoid receptor using cell-based assays. These assays involve a Chinese hamster ovary (CHO) cell line which contains fragments of the glucocorticoid receptor as well as fusion proteins. The glucocorticoid receptor fragments used are capable of binding the ligand (e.g. beclomethasone) to identify molecules that compete for binding with glucocorticoid receptor ligands. In more detail, the glucocorticoid receptor ligand binding domain is fused to the DNA binding domain (DBD) of the transcription factor GAL4 (GAL4 DBD-GR) and is stably integrated into a CHO cell line containing a GAL4-UAS-Luciferase reporter construct. […] After cell lysis the luminescence that is produced by luciferase after addition of the substrate is detected and EC50 or IC50 values can be calcuated. Engagement of molecules which induce gene expression via glucocortocoid receptor binding to the DNA leads to expression of the luciferase gene under the control of the fusion protein GAL4 DBD-GR and therefore to a dose-dependent increase of the luminescence signal. Binding of molecules which repress beclomethasone-induced gene expression of the luciferase gene under the control of the fusion protein GAL4 DBD-GR leads to a dose-dependent reduction of the luminescence signal.
The reporter cell line CHO-Gal4/GR consisted of a chinese hamster ovary (CHO) cell line (Leibniz Institute DSMZ—German Collection of Microorganisms and Cell Cultures GmbH: ACC-110) containing a firefly luciferase gene under the control of the GR ligand binding domain fused to the DNA binding domain (DBD) of GAL4 (GAL4 DBD-GR) stably integrated into CHO cells. This cell line was established by stable transfection of CHO cells with a GAL4-UAS-Luciferase reporter construct. In a subsequent step the ligand binding domain of the GR cloned into pIRES2-EGFP-GAL4 containing the DNA binding domain of GAL4 from pFA-AT2 was transfected. This fusion construct activated firefly luciferase expression under the control of a multimerized GAL4 upstream activation sequence (UAS). The signal of the emitted luminescence was recorded by the FLIPR^TETRA. This allowed for specific detection of ligand-induced activation of the GR and therefore for the identification of compounds with agonistic properties. The GAL4/UAS reporter was premixed with a vector that constitutively expressed Renilla luciferase, which served as an internal positive control for transfection efficiency.
The complete culture medium for the assay was: • DMEM F-12 (1:1) MIXTURE (LONZA cat. No: BE04-687F/U1) 500 mL • 5 mL of 100 mM Sodium Pyruvate (LONZA cat. No: BE12-115E) • 25 mL of 7.5% Sodium Bicarbonate (LONZA cat. No BE17-613E) • 6.5 mL of 1 M Hepes (LONZA cat. No: BE17-737E) • 5 mL of 100× Penicillin/Streptomycin (LONZA cat. No DE17-602E) • 50 mL of Fetal Bovine Serum (Euroclone cat. No ECS 0180L) • 0.25 mL of 10 mg/mL Puromycin (InvivoGen cat.: ant-pr-1) • 0.5 mL of 100 mg/mL Zeocin (InvivoGen cat.: ant-zn-1)
Cryo-preserved CHO-Gal4/GR cells were suspended in complete medium and 5000 cells/25 μl/well were seeded into the wells of 384-well polystyrene assay plates (Thermo Scientific, cat. #4332) and cultured at 37° C., 5% CO2 and 95% humidity. After 24 hours growth medium was carefully removed and replaced by 30 μl Opti-MEM (GIBCO, cat. #31985062) as assay buffer. To test the compounds an 8-point half-log compound dilution curve was generated in 100% DMSO starting from a 2 mM stock and compounds were then diluted 1:50 in Opti-MEM. 10 μl of compounds were then added to the wells containing 30 μl Opti-MEM resulting in a final assay concentration range from 10 μM to 0.003 μM in 0.5% DMSO. Compounds were tested at 8 concentrations in quadruplicate data points. […] Finally, cells were lysed with 20 μl of Triton/Luciferin solution and the signal of the emitted luminescence was recorded at the FLIPR^TETRA for 2 minutes. […]
For orientation: In a reporter assay the amount or activity of a reporter protein is the signal.

The IC50 is the point on the concentration scale where inhibition reaches its midpoint.

glucocorticoid receptor (GAL4 DBD-GR), sequence (P04150 524-758): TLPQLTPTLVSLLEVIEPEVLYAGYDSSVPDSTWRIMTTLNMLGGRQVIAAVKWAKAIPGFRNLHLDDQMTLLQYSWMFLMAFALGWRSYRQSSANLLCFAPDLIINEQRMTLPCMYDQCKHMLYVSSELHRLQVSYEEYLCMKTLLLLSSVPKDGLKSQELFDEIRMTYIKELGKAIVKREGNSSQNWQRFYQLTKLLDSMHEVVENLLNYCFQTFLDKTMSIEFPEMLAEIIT

Turning to `Cc1ncsc1C(=O)N[C@H]1[C@H](C)C(=O)N(c2ccc3c(cnn3-c3ccc(F)cc3)c2)[C@@H]1c1ccc(Cl)s1` (racemic) [Example 113, N-[rac-(2S,3S,4S)-2-(5-Chloro-thiophen-2-yl)-1-[1-(4-fluorophenyl)-1H-indazol-5-yl]-4-methyl-5-oxo-pyrrolidin-3-yl]-4-methyl-thiazole-5-carboxylic acid amide], the IC50 lay in the range of 100 to 1000 nM.

`C[C@@H]1C(=O)N(c2ccc3c(cnn3-c3ccc(F)cc3)c2)[C@H](c2ccccc2Cl)[C@H]1NC(=O)c1cccnc1` (racemic) [Example 92, N-[rac-(2R,3S,4S)-2-(2-Chlorophenyl)-1-[1-(4-fluorophenyl)-1H-indazol-5-yl]-4-methyl-5-oxo-pyrrolidin-3-yl]-pyridine-3-carboxylic acid amide]: the half-maximal inhibitory concentration (IC50) was less than 100 nM.

As to `COc1ccc([C@@H]2[C@@H](NC(=O)c3ncccn3)[C@H](C)C(=O)N2c2ccc3c(cnn3-c3ccc(F)cc3)c2)cc1` (racemic) [Example 85, N-[rac-(2R,3S,4S)-1-[1-(4-Fluorophenyl)-1H-indazol-5-yl]-2-(4-methoxyphenyl)-4-methyl-5-oxo-pyrrolidin-3-yl]-pyrimidine-2-carboxylic acid amide], the IC50 was in the range of 100 to 1000 nM.

For `Cc1ncc(C(=O)N[C@H]2[C@H](c3ccccc3)N(c3ccc4c(cnn4-c4ccc(F)cc4)c3)C(=O)C2(C)C)o1` [Example 44b, N-((2S,3R)-1-(1-(4-fluorophenyl)-1H-indazol-5-yl)-4,4-dimethyl-5-oxo-2-phenylpyrrolidin-3-yl)-2-methyloxazole-5-carboxamide], the IC50 is 100 to 1000 nM.

Take `CC1(C)C(=O)N(c2ccc3c(cnn3-c3ccc(F)cc3)c2)[C@@H](c2ccccc2)[C@@H]1NS(C)(=O)=O` [Example 34b, N-((2S,3R)-1-(1-(4-fluorophenyl)-1H-indazol-5-yl)-4,4-dimethyl-5-oxo-2-phenylpyrrolidin-3-yl)methanesulfonamide]: the IC50 lay in the range of 100 to 1000 nM.

Take `CC[C@@H]1C(=O)N(c2ccc3c(cnn3-c3ccc(F)cc3)c2)[C@H](c2ccccc2)[C@H]1NC(=O)C1CC1` (racemic) [Example 126, N-[rac-(2R,3S,4S)-4-Ethyl-1-[1-(4-fluorophenyl)-1H-indazol-5-yl]-5-oxo-2-phenyl-pyrrolidin-3-yl]-cyclopropanecarboxylic acid amide]: the IC50 was less than 100 nM.

`Cc1ncoc1C(=O)N[C@H]1[C@H](c2ccccc2)N(c2ccc3c(cnn3-c3ccc(F)cc3)c2)C(=O)C1(C)C` [Example 45b, N-((2S,3R)-1-(1-(4-fluorophenyl)-1H-indazol-5-yl)-4,4-dimethyl-5-oxo-2-phenylpyrrolidin-3-yl)-4-methyloxazole-5-carboxamide]: the IC50 lay in the range of 100 to 1000 nM.

For the compound `Cn1cc(C[C@H]2C(=O)N(c3ccc4c(cnn4-c4ccc(F)cc4)c3)[C@H](c3ccccc3)[C@H]2NC(=O)C2CC2)cn1` [Example 139b, N-((2R,3S,4R)-1-(1-(4-fluorophenyl)-1H-indazol-5-yl)-4-((1-methyl-1H-pyrazol-4-yl)methyl)-5-oxo-2-phenylpyrrolidin-3-yl)cyclopropanecarboxamide], the IC50 was in the range of 1000 to 15000 nM.

Consider `C[C@@H]1C(=O)N(c2ccc3c(cnn3-c3ccc(F)cc3)c2)[C@H](c2ccccc2)[C@H]1NC(=O)c1ncccn1` (racemic) [Example 66, N-[rac-(2R,3S,4S)-1-[1-(4-Fluorophenyl)-1H-indazol-5-yl]-4-methyl-5-oxo-2-phenyl-pyrrolidin-3-yl]-pyrimidine-2-carboxylic acid amide], for which the concentration for half-maximal inhibition (IC50) was less than 100 nM.

On to `Cc1nocc1C(=O)N[C@H]1[C@H](c2ccccc2)N(c2ccc3c(cnn3-c3ccc(F)cc3)c2)C(=O)C1(C)C` [Example 40b, N-((2S,3R)-1-(1-(4-fluorophenyl)-1H-indazol-5-yl)-4,4-dimethyl-5-oxo-2-phenylpyrrolidin-3-yl)-3-methylisoxazole-4-carboxamide], for which the concentration for half-maximal inhibition (IC50) fell in the range of 100 to 1000 nM.

(Values after US12358907B2, “Substituted pyrrolidine amides III” (GRÜNENTHAL GMBH, priority 2019, dated 2025).)
